Experimental data published in US11155841B2, “Method for producing sphingoid base or sphingolipid” (AJINOMOTO CO., INC., priority 2015, dated 2021).

Test: Phytosphingosine solubility with various cyclodextrins in aqueous solution
Type: physicochemical
Conditions: aqueous 2-hydroxypropyl-α-cyclodextrin solution, aqueous with cosolvent or surfactant or cyclodextrin, thermodynamic from solid; excess of pure phytosphingosine (20 g/l) incubated with 2-hydroxypropyl-α-cyclodextrin solution; quantified by LC-MS; read-out: Solubilized phytosphingosine in the supernatants
Protocol: Phytosphingosine amounts (mg/l) measured in supernatants after incubation of an excess of pure phytosphingosine (20 g/l) with each of the three types of cyclodextrin at various concentrations.
These experiments were conducted to determine if and to what extent cyclodextrins solubilized sphingoid bases. To that end, an excess of phytosphingosine was incubated with increasing concentrations of solutions of three different types of cyclodextrin species—α-cyclodextrin, 2-hydroxypropyl-α-cyclodextrin, 2-hydroxypropyl-β-cyclodextrin. Solubilized phytosphingosine in the supernatants were quantified by liquid chromatography-mass spectrometry (LC-MS) using standards prepared in the same cyclodextrin solutions.

solubility: > 9000 µg/mL
Compound: CCCCCCCCCCCCCC[C@@H](O)[C@@H](O)[C@@H](N)CO [phytosphingosine]
